According to ChEMBL document CHEMBL1136570, “Synthesis and dopamine transporter affinity of chiral 1-[2-[bis(4-fluorophenyl)methoxy]ethyl]-4-(2-hydroxypropyl)piperazines as potential cocaine abuse therapeutic agents” (Bioorg Med Chem Lett, 2003):

What was measured:
[1] = molecular target: Sodium-dependent dopamine transporter (Rattus norvegicus, UniProt P23977); experiment: Binding affinity for dopamine transporter (DAT)
[2] = molecular target: Monoamine transporters; serotonin & dopamine (Rattus norvegicus) (UniProt P31652+P23977); experiment: Selectivity expressed as ratio of affinity for SERT/DAT; format: protein assay
Chain of Monoamine transporters; serotonin & dopamine (Rattus norvegicus) (P23977 whole entry, looked up): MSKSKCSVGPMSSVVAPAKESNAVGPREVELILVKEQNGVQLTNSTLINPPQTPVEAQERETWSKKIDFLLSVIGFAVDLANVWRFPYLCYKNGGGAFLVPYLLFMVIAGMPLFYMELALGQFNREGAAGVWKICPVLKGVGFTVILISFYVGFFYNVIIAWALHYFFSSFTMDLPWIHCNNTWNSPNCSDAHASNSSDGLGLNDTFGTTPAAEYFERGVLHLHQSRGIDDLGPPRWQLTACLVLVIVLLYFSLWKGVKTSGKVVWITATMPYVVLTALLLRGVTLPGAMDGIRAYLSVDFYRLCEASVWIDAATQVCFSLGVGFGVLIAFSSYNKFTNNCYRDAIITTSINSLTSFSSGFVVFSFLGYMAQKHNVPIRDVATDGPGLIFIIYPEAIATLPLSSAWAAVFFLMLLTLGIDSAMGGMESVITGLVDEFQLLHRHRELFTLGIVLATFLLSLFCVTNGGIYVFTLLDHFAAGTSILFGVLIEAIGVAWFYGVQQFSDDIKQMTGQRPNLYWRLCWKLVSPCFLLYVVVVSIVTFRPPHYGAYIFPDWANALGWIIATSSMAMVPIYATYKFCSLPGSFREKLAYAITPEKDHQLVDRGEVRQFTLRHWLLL
Chain of Monoamine transporters; serotonin & dopamine (Rattus norvegicus) (P31652 whole entry, looked up): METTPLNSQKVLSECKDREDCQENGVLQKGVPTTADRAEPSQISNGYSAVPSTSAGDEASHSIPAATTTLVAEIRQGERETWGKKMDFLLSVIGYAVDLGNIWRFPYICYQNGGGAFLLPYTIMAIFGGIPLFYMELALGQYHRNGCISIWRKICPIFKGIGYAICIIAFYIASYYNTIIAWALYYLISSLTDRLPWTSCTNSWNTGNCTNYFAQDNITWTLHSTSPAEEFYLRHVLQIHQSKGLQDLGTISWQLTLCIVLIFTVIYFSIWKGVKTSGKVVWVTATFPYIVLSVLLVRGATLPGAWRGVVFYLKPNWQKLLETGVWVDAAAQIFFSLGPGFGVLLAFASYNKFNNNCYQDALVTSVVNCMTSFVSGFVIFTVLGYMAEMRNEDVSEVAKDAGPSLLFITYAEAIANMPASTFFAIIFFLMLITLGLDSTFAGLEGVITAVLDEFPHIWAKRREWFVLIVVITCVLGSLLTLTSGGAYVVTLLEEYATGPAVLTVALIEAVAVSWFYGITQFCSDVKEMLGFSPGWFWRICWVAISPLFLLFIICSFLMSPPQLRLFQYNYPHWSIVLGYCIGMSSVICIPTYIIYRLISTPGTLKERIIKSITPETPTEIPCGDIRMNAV

[3] = molecular target: Sodium-dependent serotonin transporter (Rattus norvegicus, UniProt P31652); experiment: Binding affinity for serotonin transporter (SERT)
Chain of Sodium-dependent serotonin transporter (P31652 whole entry): as the sequence (P31652 whole entry, looked up) above

Chain of Sodium-dependent dopamine transporter (P23977 whole entry): as the sequence (P23977 whole entry, looked up) above

C[C@H](O)CN1CCN(CCOC(c2ccc(F)cc2)c2ccc(F)cc2)CC1
Ki [1]: 23 nM
Ratio [2]: 43
Ki [3]: 981 nM

C[C@@](O)(CN1CCN(CCOC(c2ccc(F)cc2)c2ccc(F)cc2)CC1)c1ccccc1
Ki [1]: 5.6 nM
Ratio [2]: 50
Ki [3]: 281 nM

C[C@](O)(CN1CCN(CCOC(c2ccc(F)cc2)c2ccc(F)cc2)CC1)c1ccccc1
Ki [1]: 140 nM
Ratio [2]: 4
Ki [3]: 520 nM

OC(Cc1ccccc1)CN1CCN(CCOC(c2ccc(F)cc2)c2ccc(F)cc2)CC1 (racemic)
Ratio [2]: 54

CC(O)(CN1CCN(CCOC(c2ccc(F)cc2)c2ccc(F)cc2)CC1)c1ccccc1 (racemic)
Ki [1]: 20 nM
Ratio [2]: 15
Ki [3]: 298 nM

O[C@@H](Cc1ccccc1)CN1CCN(CCOC(c2ccccc2)c2ccccc2)CC1
Ratio [2]: 939

CCCN1CCN(CCOC(c2ccc(F)cc2)c2ccc(F)cc2)CC1
Ki [1]: 40 nM
Ratio [2]: 22
Ki [3]: 888 nM

C[C@@H](O)CN1CCN(CCOC(c2ccccc2)c2ccccc2)CC1
Ki [1]: 44 nM
Ratio [2]: 293
Ki [3]: 12900 nM

O[C@@H](Cc1ccccc1)CN1CCN(CCOC(c2ccc(F)cc2)c2ccc(F)cc2)CC1
Ratio [2]: 307

C[C@H](O)CN1CCN(CCOC(c2ccccc2)c2ccccc2)CC1
Ki [1]: 48 nM
Ratio [2]: 217
Ki [3]: 10400 nM

O[C@H](Cc1ccccc1)CN1CCN(CCOC(c2ccc(F)cc2)c2ccc(F)cc2)CC1
Ratio [2]: 14

CCN1CCN(CCOC(c2ccc(F)cc2)c2ccc(F)cc2)CC1
Ki [1]: 34 nM
Ratio [2]: 61
Ki [3]: 2090 nM

C[C@H](O)[C@@H](c1ccccc1)N1CCN(CCOC(c2ccc(F)cc2)c2ccc(F)cc2)CC1
Ki [1]: 36 nM
Ratio [2]: 16
Ki [3]: 583 nM

C[C@@H](O)[C@H](c1ccccc1)N1CCN(CCOC(c2ccc(F)cc2)c2ccc(F)cc2)CC1
Ki [1]: 13 nM
Ratio [2]: 43
Ki [3]: 565 nM

C[C@@H](O)CN1CCN(CCOC(c2ccc(F)cc2)c2ccc(F)cc2)CC1
Ki [1]: 76 nM
Ratio [2]: 8
Ki [3]: 588 nM

O[C@H](Cc1ccccc1)CN1CCN(CCOC(c2ccccc2)c2ccccc2)CC1
Ratio [2]: 73

C=CCN1CCN(CCOC(c2ccc(F)cc2)c2ccc(F)cc2)CC1
Ki [1]: 65 nM
Ratio [2]: 25
Ki [3]: 1650 nM
